According to patent US20110113495A1, “SCREENING METHOD FOR AGENTS SUITABLE FOR PROPHYLAXIS AND THERAPY OF ALZHEIMER'S DISEASE (AD)” (priority 2008, published 2011):
Entries after “also recorded” stand apart in the source; their conditions may differ.

Tests used:
[1] = test system: primary hippocampal rat neurons; experiment: Toxicity test (MultiTox-Fluor) with primary hippocampal rat neurons; assay type: cell-based; conditions: normalized peptide concentration, 48 h
Protocol: Hippocampi from P0-P1 Wistar rat pups were used for primary neuronal dissociated cultures. Tissue was dissected in HBSS containing Ca^2+ and Mg^2+ and incubated with an enzyme solution containing 1 mM CaCl2, 0.5 mM EDTA Ph 8.0, 2 mg/ml Cystein and 200-250 units papain (Worthington) in BME for 60 min at 37° C. Supernatant was removed and cells were incubated in inactivation solution (2.5 mg/ml BSA, 2.5 mg/ml Trypsin inhibitor (both Sigma) and 10% FCS in BME) for 5 min at. RT. Tissue clumps were dissociated by repeated passage through 1 ml pipettes. Cells were centrifuged for 10 min at 12000 rpm, 4° C. and resuspended in Neurobasal A medium supplemented with 2% B27, 2 mM Glutamax and 0.2% Penicillin/Streptomycin (all Gibco). Neurons were cultured on glia cell feeder layers in 96 well plates with 5×10^3 cells in 100 μl medium. For feeder layer cultures rat P0-P1 cortices were prepared as described above and cultured at a density of 1×10^6 cells in a T75 flask for at least one week in BME medium supplemented with 10% FCS, 5 mM glucose, 1 mM Glutamax, 10 mM Hepes, 2.5 μg/ml insulin, 0.2% Penicillin/Streptomycin. Cells were trypsinized and 2×10^3 cells per well were seeded in 96 wells plates four days before neurons were added.
After ten days of incubation neuronal cultures were treated with Aβ1-42 freshly dissolved in H2O or with SEC fractions for another 48 h. Neuronal viability was detected by using MultiTox-Fluor Multiplex Cytotxicity assay (Promega) as recommended by the producer.
Cells treated with buffer only were set as non-toxic.

[2] = test system: SH-SY5Y cells (human neuroblastoma cells); experiment: Toxicity test (MTT) with human neuroblastoma cells; assay type: cell-based; conditions: 10 μM peptide or SEC fractions, 12 h
Protocol: SH—SY5Y cells were routinely cultured in DMEM/Ham'sF12 medium (PAA) supplemented with 10% (v/v) bovine calf serum, 2 mM glutamine, 0.1 mM non-essential amino acids and 0.5 mM sodium pyruvate in a 5% CO2 humidified atmosphere at 37° C.
Cells were plated at a density of 1.000 cells per well in 100 μl of fresh medium on 96-well plates. After 48 h medium was replaced by DMEM/Ham's F12 with 100 Uml^−1 penicillin and 10 μg streptomycin including 10 μM peptide, freshly dissolved in H2O containing 0.125% NH3 or fractions received by size exclusion chromatography. Probe and control were incubated for 12 h. Cell mediated reduction of 3-(4,5-dimethylthiazol-2-yl)-2,5-diphenyltetrazolium bromide (MTT) was used to monitor Aβ toxicity by addition of 10 μl of a 5 mgml^−1 MTT stock solution and incubation for further 1-2 h. Before measuring the absorbance of blue formazan at 562 nm using an automatic micro plate reader, cells were lysed with 50 μl DMSO for 10 minutes at room temperature.
The toxic effects of various oligomers on human neuroblastoma cells was determined by use of the MTT test allowing to quantify the toxicity.

[3] = test system: acute hippocampal rat brain sections or slices (area CA1 fEPSPs); experiment: Long term potentiation (LTP) of acute hippocampal rat brain slices; conditions: slices incubated with 500 nM peptide 20 min prior to tetanisation
Protocol: Hippocampal slices were prepared from 3-6 week old Wistar rats. Rats were decapitated under ether anesthesia. The brain was removed quickly and sectioned into 300 μm thick slices using a vibroslicer (Leica). The slices were maintained at room temperature in a holding chamber containing oxygenated artificial cerebrospinal fluid (ACSF; 129 mM NaCl, 1 mM NaH2PO4, 10 mM Glucose, 1.8 mM MgSO4, 1.6 mM CaCl2, 3 mM KCl, NaHCO3 21 mM). (Ringer: 119 mM NaCl, 1 mM NaH2PO4, 10 mM Glucose, 1.3 mM MgSO4, 2.5 mM CaCl2, 2.5 mM KCl, NaHCO3 26 mM) Ph 7.2-7.4 Osmolarität 0.28-0.31 Osmol/kg.
After at least 1 h equilibration, slices were transferred into submerged recording chamber and continuously perfuse with room temperature oxygenated ACSF at 3 ml/min throughout the experiments. […] Peptide was not washed during the experiment.
Field excitatory postsynaptic potentials (fEPSPs) were recorded of stratum radiatum area CA1 evoked by Schaffer collateral stimulation with ACSF filled electrodes. Two independent pathways were measured whereas two stimulating electrodes lay parallel to each other.
Baseline responses were collected using test pulses that yield 30-40% of the maximal fEPSP slope. LTP was induced by Theta brust stimulation (TBS) of one of the two pathways. The inter-theta burst stimulation interval was 20 sec and four TBSs were applied to induce LTP. TBS consisted of 10 bursts delivered at 5 Hz. Each burst consisted of four pulses delivered at 100 Hz with a pulse-duration of 0.2 msec. (Evers M., Salmen B., Schachner M., 2002 J. Neuroscience)
The amount of LTP was described as percent changes of (EPSP slopes after TBS normalized to baseline values with an additional subtraction of the second, unstimulated pathway. Slopes were analysed using IGOR program.
In order to assay whether Aβ oligomers show an effect on learning and commemoration LTP (long term potentiation) of acute hippocampal sections of rat brains was determined. Several recent publications report on the inhibition of LTP by Aβ1-42. This effect can be equated with cognitive deficiencies observed for AD patients. In order to further improve these performance tests and to minimize possible side effects of the peptides on the general network plasticity of the sections, two independent neuronal pathways were assayed. Whereas the first pathway was stimulated for inducing LTP, the second one was assayed unstimulated as a control. It could be confirmed that Aβ peptides inhibit LTP.

[4] = Size exclusion chromatography of freshly dissolved Aβ1-42 peptides (oligomer size distribution); assay type: physicochemical; conditions: freshly dissolved peptide 1 mg/ml, Superose 12 column, 1×PBS
Protocol: In order to discriminate the various oligomeric forms of Aβ wildtype and mutant peptides, a size exclusion chromatography was performed. Therefore, a Superose 12 column (Amersham Bioscience) was equilibrated with 1×PBS (137 mM NaCl, 2.7 mM KCl, 10 mM Na2HPO4, 2 mM KH2PO4) under conditions recommended by the manufacturer. Thereafter 1 mg peptide was monomerized with 50 μl concentrated formic acid and evaporated. Peptides were solubilized in H2O containing 0.125% NH3 to a final concentration of 1 mg/ml.
A volume of 500 μl was centrifuged at maximal speed for 10 minutes and loaded on the column with a flow rate of 0.5 ml/min. For determination of the peptide concentration, fractions were tested with Bradford-, BCA-assay and dot blot analysis. The collected fractions were immediately applied for further analysis.
In this study it was investigated to what extent the GxxxG motif effects the aggregation of Aβ1-42 peptides. Aβ1-42 peptides and the oligomers were separated by use of SEC.

| Substance | toxic effect (Multi-tox) [1] | toxic effect (MTT) [2] | LTP induction after theta burst stimulation [3] | oligomer size distribution / aggregation by SEC [4] | oligomer size distribution / aggregation by SEC ([4]; listed as Aβ1-42) | LTP induction after theta burst stimulation ([3]; listed as tetramers of the Aβ1-42G33A peptide) | oligomer size distribution / aggregation by SEC ([4]; listed as G33A) |
| --- | --- | --- | --- | --- | --- | --- | --- |
| Aβ1-42 tetramers: tetramers (SEC fraction) of wild type Aβ1-42 peptide [reference compound] | highest toxicity | highest toxicity | cause a measurable loss of cognitive performance | – | – | – | – |
| Aβ1-42 wt: wild type amyloid beta 1-42 peptide containing the G29xxxG33 motif [reference compound] | strong toxic effect | strong toxic effect | no LTP is induced | immediately aggregates to 4- and 6-mers | 4- to 6mers | – | – |
| Aβ1-42G29/33A: Aβ1-42 double mutant G29/33A | weak toxicity | only weak toxicity | – | Most of the oligomers have a low MW, but large amounts of oligomers having a higher MW are already visible | – | – | – |
| Aβ1-42G29A: Aβ1-42 peptide with mutation at position 29 (G to A) | strong toxic effect | strong toxic effect | – | – | – | – | – |
| Aβ1-42G33A tetramers: tetramers of the Aβ1-42G33A peptide | – | no toxic effects were observed | correspond to the results obtained for Aβ1-42G331 | – | – | LTP could be induced | – |
| Aβ1-42G33A: Aβ1-42 peptide with glycine at position 33 replaced by alanine | – | – | – | shift to oligomers with a higher MW | – | – | minor amounts of tetramers are still detectable |
| Aβ1-42G331: Aβ1-42 peptide with glycine at position 33 replaced by isoleucine | – | – | induced LTP shows the same value as the control; also recorded: LTP could be induced | – | – | – | – |
